Measurements taken from patent US20230183219A1, “CONDENSED SUBSTITUTED HYDROPYRROLES AS ANTAGONISTS OF THE MUSCARINIC ACETYLCHOLINE RECEPTOR M4” (Vanderbilt University, priority 2020, published 2023).

Biological target: T1, Human M4 (Homo sapiens, UniProt P08173)
T1 construct: Human or rat M4 cDNA, along with the chimeric G protein Gqi5, were transfected into Chinese hamster ovary (CHO-K1) cells; expressed in transfected cells; host or cells: CHO-K1 (Chinese hamster ovary, ATCC), stably co-expressing Gqi5
T1 sequence (P08173 1-479): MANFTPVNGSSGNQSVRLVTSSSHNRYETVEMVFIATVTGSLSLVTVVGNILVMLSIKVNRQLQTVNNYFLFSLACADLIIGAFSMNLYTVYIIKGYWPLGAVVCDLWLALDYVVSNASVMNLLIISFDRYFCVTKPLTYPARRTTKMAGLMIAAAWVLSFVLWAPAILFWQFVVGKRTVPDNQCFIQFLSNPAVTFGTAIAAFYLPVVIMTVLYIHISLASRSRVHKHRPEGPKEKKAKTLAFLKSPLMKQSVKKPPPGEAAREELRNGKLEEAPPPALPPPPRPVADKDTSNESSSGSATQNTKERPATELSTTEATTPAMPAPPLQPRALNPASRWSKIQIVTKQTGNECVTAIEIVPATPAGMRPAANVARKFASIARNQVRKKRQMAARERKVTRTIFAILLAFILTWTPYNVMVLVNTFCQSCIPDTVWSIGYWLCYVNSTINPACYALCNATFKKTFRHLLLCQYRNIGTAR
Experiment: mAChR M4 cell-based functional assay (calcium flux, decrease of EC80 acetylcholine response)
Details: for remaining activity at 30 µM: % ACh maximum at 30 μM, read-out: Human M4 Emin; for IC50: M4/Gqi5/CHO-K1 cells, decrease of response to EC80 acetylcholine
In short: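 CHO-K1 cells stably co-expressing M4 and chimeric Gqi5, loaded with Fluo-4 AM; calcium flux read on FDSS. Compound added at 2 s, EC20 acetylcholine at 143 s, EC80 acetylcholine at 268 s. IC50 from concentration-dependent decrease of the EC80 response, four-parameter logistic fit; 10-point 1:3 titrations.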

SMILES | remaining activity at 30 µM [%] | IC50 [nM]
[2H]C([2H])(C1CCOCC1)N1C[C@H]2C[C@H](Nc3nnc(-c4cc(F)ccc4C)cc3C(F)(F)F)C[C@H]2C1 [Example 17, (3aR,5s,6aS)-N-(6-(5-fluoro-2-methylphenyl)-4-(trifluoro-methyl)pyridazin-3-yl)-2-((tetrahydro-2H-pyran-4-yl)methyl-d2)octahydro-cyclopenta[c]pyrrol-5-amine] | 3 | 11.3
COc1ccc(-c2cc(C(F)(F)F)c(N[C@H]3C[C@@H]4CN(CC5CCOCC5)C[C@@H]4C3)nn2)c(C)c1 [Example 77, (3aR,5s,6aS)-N-(6-(4-methoxy-2-methylphenyl)-4-(trifluoromethyl)pyridazin-3-yl)-2-((tetrahydro-2H-pyran-4-yl)methyl)octahydro-cyclopenta[c]pyrrol-5-amine] | 3 | 38
Cn1cc2cc(-c3cc(C(F)(F)F)c(N[C@H]4C[C@@H]5CN(CC6CCCOC6)C[C@@H]5C4)nn3)ccc2n1 (single isomer, unassigned) [Example 36] | 4 | 99.7
[2H][C@@]1(Oc2nnc(-c3cc(F)ccc3C)cc2C(F)(F)F)C[C@H]2CN(Cc3ccccn3)C[C@H]2C1 [Example 134, (3aR,5s,6aS)-5-((6-(5-fluoro-2-methylphenyl)-4-(trifluoro-methyl)pyridazin-3-yl)oxy)-2-(pyridin-2-ylmethyl)octahydro-cyclopenta[c]pyrrole-5-d] | 6 | 2830
Cc1cc(F)ccc1-c1cc(C(F)(F)F)c(N[C@H]2C[C@@H]3CN(CC4CCOCC4)C[C@@H]3C2)nn1 [Example 74, (3aR,5s,6aS)-N-(6-(4-fluoro-2-methylphenyl)-4-(trifluoromethyl)pyridazin-3-yl)-2-((tetrahydro-2H-pyran-4-yl)methyl)octahydro-cyclopenta[c]pyrrol-5-amine] | 3 | 38.9
Fc1ccc(F)c(-c2cc(C(F)(F)F)c(N[C@H]3C[C@@H]4CN(CC5CCOCC5)C[C@@H]4C3)nn2)c1 [Example 38, (3aR,5s,6aS)-N-(6-(2,5-difluorophenyl)-4-(trifluoromethyl)pyridazin-3-yl)-2-((tetrahydro-2H-pyran-4-yl)methyl)octahydro-cyclopenta[c]pyrrol-5-amine] | 3 | 207
COc1ccccc1-c1cc(C(F)(F)F)c(N[C@H]2C[C@@H]3CN(CC4CCOCC4)C[C@@H]3C2)nn1 [Example 64, (3aR,5s,6aS)-N-(6-(2-methoxyphenyl)-4-(trifluoromethyl)pyridazin-3-yl)-2-((tetrahydro-2H-pyran-4-yl)methyl)octahydro-cyclopenta[c]pyrrol-5-amine] | 3 | 54
[2H]C([2H])(C1CCOCC1)N1C[C@H]2C[C@H](Nc3nnc(-c4cc(C)ccc4C)cc3C(F)(F)F)C[C@H]2C1 [Example 98, (3aR,5s,6aS)-N-(6-(2,5-dimethylphenyl)-4-(trifluoromethyl)pyridazin-3-yl)-2-((tetrahydro-2H-pyran-4-yl)methyl-d2)octahydro-cyclopenta[c]pyrrol-5-amine] | 3 | 72.7
Cn1cnc2ccc(-c3cc(C(F)(F)F)c(N[C@H]4C[C@@H]5CN(Cc6ccccn6)C[C@@H]5C4)nn3)cc21 [Example 117, (3aR,5s,6aS)-N-(6-(1-methyl-1H-benzo[d]imidazol-6-yl)-4-(trifluoromethyl)pyridazin-3-yl)-2-(pyridin-2-ylmethyl)octahydro-cyclopenta[c]pyrrol-5-amine] | 4 | 345
Cn1ccc2cc(-c3cc(C(F)(F)F)c(N[C@H]4C[C@@H]5CN(CC6CCOCC6)C[C@@H]5C4)nn3)ccc21 [Example 87, (3aR,5s,6aS)-N-(6-(1-methyl-1H-indol-5-yl)-4-(trifluoromethyl)pyridazin-3-yl)-2-((tetrahydro-2H-pyran-4-yl)methyl)octahydro-cyclopenta[c]pyrrol-5-amine] | 4 | 89.6
Cc1nn(C)c(C)c1-c1cc(C(F)(F)F)c(N[C@H]2C[C@@H]3CN(CC4CCOCC4)C[C@@H]3C2)nn1 [Example 40, (3aR,5s,6aS)-2-((tetrahydro-2H-pyran-4-yl)methyl)-N-(4-(trifluoromethyl)-6-(1,3,5-trimethyl-1H-pyrazol-4-yl)pyridazin-3-yl)octahydro-cyclopenta[c]pyrrol-5-amine] | 4 | 184
Cn1cc2cc(-c3cc(C(F)(F)F)c(N[C@H]4C[C@@H]5CN(C[C@H]6CC7CCC6O7)C[C@@H]5C4)nn3)ccc2n1 (stereo partly drawn) [Example 27, (3aR,5s,6aS)-2-(((2R)-7-oxabicyclo[2.2.1]heptan-2-yl)methyl)-N-(6-(2-methyl-2H-indazol-5-yl)-4-(trifluoromethyl)pyridazin-3-yl)octahydro-cyclopenta[c]pyrrol-5-amine] | 3 | 74.3
Cn1cc2cc(-c3cc(C(F)(F)F)c(N[C@H]4C[C@@H]5CN(C[C@H]6COCCO6)C[C@@H]5C4)nn3)ccc2n1 [Example 34, (3aR,5s,6aS)-2-(((S)-1,4-dioxan-2-yl)methyl)-N-(6-(2-methyl-2H-indazol-5-yl)-4-(trifluoromethyl)pyridazin-3-yl)octahydro-cyclopenta[c]pyrrol-5-amine] | 6 | 32.9
COc1cc(F)c(-c2cc(C(F)(F)F)c(N[C@H]3C[C@@H]4CN(CC5CCOCC5)C[C@@H]4C3)nn2)cc1F [Example 78, (3aR,5s,6aS)-N-(6-(2,5-difluoro-4-methoxyphenyl)-4-(trifluoromethyl)pyridazin-3-yl)-2-((tetrahydro-2H-pyran-4-yl)methyl)octahydro-cyclopenta[c]pyrrol-5-amine] | 3 | 172
Cc1ccc(F)cc1-c1cc(C#N)c(N[C@H]2C[C@@H]3CN(C[C@H]4CCOC4)C[C@@H]3C2)nn1 [Example 152, 6-(5-fluoro-2-methylphenyl)-3-(((3aR,5s,6aS)-2-(((R)-tetrahydrofuran-3-yl)methyl)octahydro-cyclopenta[c]pyrrol-5-yl)amino)pyridazine-4-carbonitrile] | 6 | 14.9
Cn1cc2cc(-c3cc(C#N)c(N[C@H]4C[C@@H]5CN(C[C@H]6COCCO6)C[C@@H]5C4)nn3)ccc2n1 [Example 156, 3-(((3aR,5s,6aS)-2-(((S)-1,4-dioxan-2-yl)methyl)octahydro-cyclopenta[c]pyrrol-5-yl)amino)-6-(2-methyl-2H-indazol-5-yl)pyridazine-4-carbonitrile] | 12 | 10.1
[2H][C@@]1(Nc2nnc(-c3ccc4nn(C)cc4c3)cc2C(F)(F)F)C[C@H]2CN(CC3CCOCC3)C[C@H]2C1 [Example 128, (3aR,5s,6aS)-N-(6-(2-methyl-2H-indazol-5-yl)-4-(trifluoro-methyl)pyridazin-3-yl)-2-((tetrahydro-2H-pyran-4-yl)methyl)octahydro-cyclopenta[c]pyrrol-5-d-5-amine] | 3 | 13.2
